{"source": "paper PMC10897598", "about": "“TwinF interface inhibitor FP802 stops loss of motor neurons and mitigates disease progression in a mouse model of ALS” (Cell Reports Medicine, 2024)", "key": {"[1]": {"system": "primary mouse cortical neurons", "assay": "Glutamate neurotoxicity assay in primary cortical neurons", "type": "cell-based", "details": "Cortical neurone, 20 μM glutamate, compound added 30 min prior, nuclear mCherry-positive neurons, read-out: IC50, protective activity against glutamate-mediated neurotoxicity", "procedure": "On DIV10, vehicle (DMSO) or FP802 were added to the primary cortical cultures 30 min prior to glutamate insult. Images were acquired following the glutamate application for 24 h with 2 h intervals, where 9 images were obtained via a 20x objective for each condition at each time point with IncuCyte S3 Live-Cell Analysis System (Sartorius AG, Germany)."}, "30 common targets": {"system": "30 common targets", "assay": "Pharmacology safety screening, radioligand binding assays", "details": "10 µM; significant = over 50% inhibition or stimulation", "procedure": "Pharmacology safety of FP802 was evaluated in radio ligand binding assays carried out by Eurofins Panlabs Discovery Services Taiwan, Ltd. Significant responses are defined as over 50% inhibition or stimulation in the primary assays.\nTable S1. Pharmacology safety profile of FP802. […]"}, "SOD1^G93A mice": {"system": "SOD1^G93A mice", "assay": "Post-onset treatment of the SOD1G93A ALS mouse model", "type": "in vivo", "excerpt": "Heterozygous SOD1^G93A transgenic mice expressing human SOD1^G93A mutant on a C57BL/6 background (Jackson Laboratory, 004435, RRID:IMSR_JAX:004435) were used in this study.[24]^,[34] Heterozygosity was maintained by mating heterozygous transgenic males with C57BL/6 wild-type females. The animals were provided by the interdisciplinary neurobehavioral core (INBC) at Heidelberg University. Only male wild-type mice and male transgenic mice were used in the experiments. They were housed in groups (maximally three mice/cage) in the INBC, where all behavior experiments were performed. All mice were kept in standard cages (15 cm × 21 cm × 13.5 cm) on a 12:12 h light:dark cycle with ad libitum access to food, water, and nesting material. The treatments were randomly allocated to mice within litter blocks. The experimenter was blinded to the experimental group from the implantation until all analyses were done.\nA total of 83 heterozygous SOD1^G93A and 22 wild-type littermates were employed in this study. Eight WT and 12 SOD1^G93A mice were used to determine the EAAT2 protein levels in the spinal cord. Three SOD1^G93A mice were treated with FP802 to explore the concentration of FP802 in the spinal cord. Four SOD1^G93A mice were used to test the tolerability of mice to subcutaneously ALZET osmotic pump (type 2004) implantation with FP802 that allowed a continuous and constant supply of compound to the animals for 4 weeks. Eight wild-type mice were used to explore the disruption of the NMDAR/TRPM4 death signaling complex by FP802. In total, 52 SOD1^G93A mice were treated with FP802 or vehicle via ALZET osmotic pump from week 15 for 30 days (four cohorts). It was not possible to extend the treatment beyond the 30 days application period because the poor health state of many animals was incompatible with the anesthesia required for surgical implantation of a second osmotic pump. The number of animals used for experiments was specified in the figure legends. […] In addition, six wild-type littermates and 12 SOD1^G93A mice were used at week 19 and week 15, respectively, for the analysis of motor neuron survival and serum NfL levels. For the analysis of motor neuron survival, three mice (two from wild-type littermates, one from vehicle-treated SOD1^G93A mice) were excluded from the motor neuron survival because of the loss of sample during preparation.\nBodyweight and neurological scores were examined weekly starting at the onset of symptoms at week 15, which has been defined by previous studies with the same mouse line.[33]^,[34] Neurological scores of the mice were recorded as 0–4 based on the behavior of their hind limbs.[46] The humane endpoint was defined as the mouse’s inability to rectify itself in 30 s and examined daily from week 19 without knowing the treatment group.\nBefore experiments, mice were habituated to the experimenter and testing room by gentle handling for 1 min in 3 consecutive days. A brief video was taken in the behavior room where the SOD1^G93A mice were placed in an open chamber. On the experimental day, the mice were placed into an open arena (50 cm × 50 cm × 50 cm) for a total of 10 min experiment. The total traveled distance of each mouse was traced and analyzed with SYGNIS software, and also the rearing time was reordered without knowledge of the treatment.\nThe survival of motor neurons was examined by quantifying the motor neuron marker, choline acetyltransferase (ChAT)-positive neurons, and the inflammation was examined by quantifying the microglial cell marker, ionized calcium binding adaptor molecule 1 (Iba1), in the ventral horn of lumbar spinal cord (L3-L5). All control mice and SOD1 mice were perfused with 20 mL PBS followed by 20 mL of 4% paraformaldehyde in PBS. The lumbar spinal cord was dissected and post-fixed in the same solution for an additional 10 min, followed by 24 h incubation with 30% sucrose solution in PBS. […]"}, "[2]": {"system": "primary mouse cortical neurons", "details": "FP802 10 μM, 30 min pre-incubation, NMDA 20 μM, 2 h", "description": "Primary mouse cortical neurons were pre-incubated with FP802 (10 μM) or vehicle for 30 min before a 2-h treatment with either bicuculline (Bic, 50 μM) to induce action potential (AP) bursting or NMDA (20 μM) to induce excitotoxic insults. The mRNA levels of Arc, Atf3, Bdnf, c-Fos, Inhibin beta A, and Npas4 were assessed by RT-qPCR. Data represent means ± SD, n = 3; ns: no significant difference, ∗p < 0.05, ∗∗p < 0.01, ∗∗∗p < 0.001, two-way ANOVA followed by Dunnett's multiple comparisons.\nPrimary mouse cortical neurons were prepared as previously described.[43]^,[44] Briefly, brain cortices from neonatal mice (C57/Bl6, RRID:MGI:7264769) were removed and cut into small pieces in the dissociation medium (in mM: 81.8 Na2SO4, 30 K2SO4, 15.85 MgCl2, 0.25 CaCl2, 1.0 HEPES, 1050.0 kynurenic acid; 0.2% phenol red and 0.36% glucose). The tissues were then digested with papain latex (10 units/mL) in the dissociation medium supplemented with 0.45 mg/mL L-cysteine for two times of 15 min in a 37°C water bath with stirring at 15 rpm. Then the tissue was washed twice with the dissociation medium and incubated with trypsin inhibitor (0.01 g/mL) in dissociation medium for 3 × 5 min. The samples were then triturated into single cell solution and plated at a density of 0.25 × 10^6 cell per well in 24-well plates, which have been pretreated with poly-D-lysine (26.7 mg/μL) and laminin (6.7 mg/μL). […]"}, "[3]": {"details": "FP802 for 4 weeks from week 15, vs vehicle"}}, "data": [{"compound": "CCN(CCN)Cc1cccc(Cl)c1", "note": "[FP802]", "values": [{"measurement": "IC50", "setting": "[1]", "value": 8.7, "unit": "µM"}, {"measurement": "binding activities in radioligand binding safety panel", "setting": "30 common targets", "value": "No significant binding activities"}, {"measurement": "EAAT/GLT-1 expression in lumbar spinal cord", "setting": "SOD1^G93A mice; 40 mg/kg/day for 4 weeks from week 15, immunoblot", "value": "no significant effect"}, {"measurement": "neurological scores", "setting": "SOD1^G93A mice; FP802 for 4 weeks from week 15 (onset), s.c. osmotic pump, vs vehicle", "value": "significantly better"}, {"measurement": "body weight losses", "setting": "SOD1^G93A mice; [3]", "value": "lower"}, {"measurement": "motor performance, total distances traveled in an open field", "setting": "SOD1^G93A mice; [3]", "value": "significantly improved"}, {"measurement": "rearing behavior in open field", "setting": "SOD1^G93A mice; [3]", "value": "frequent rearing behavior"}, {"measurement": "survival median (lifespan)", "setting": "SOD1^G93A mice; FP802 for 4 weeks starting at week 15, vehicle 151 days", "value": 164, "unit": "days"}, {"measurement": "neuroinflammatory response, microglia marker Iba1", "setting": "SOD1^G93A mice; ventral horn of lumbar spinal cord, week 19", "value": "not affected"}, {"measurement": "serum levels of neurofilament light (NfL) chain", "setting": "SOD1^G93A mice; week 19, treatment from week 15", "value": "reduction"}, {"measurement": "soma sizes of lumbar spinal motor neurons", "setting": "SOD1^G93A mice; week 19, vs control-treated SOD1G93A mice", "value": "larger"}, {"measurement": "number of lumbar spinal motor neurons (ChAT-positive)", "setting": "SOD1^G93A mice; week 19 vs week 15, treatment from week 15", "value": "no additional death"}, {"measurement": "transcriptional shut-off induced by eNMDARs", "setting": "[2]", "value": "eliminated"}, {"measurement": "NMDA bath application-induced expression of IEGs Atf3, Arc, Bdnf, cFos, Inhibin beta A, Npas4", "setting": "[2]; RT-qPCR, levels comparable to bicuculline-induced AP bursting", "value": "boosted"}]}]}
